From article PMC10247784, “Physiological activation of human and mouse bitter taste receptors by bile acids” (Communications Biology, 2023)

Legend:
[1] = biological target: T1, mouse Tas2r105 (Mus musculus, UniProt Q9JKT4); assay: Calcium imaging assay (FLIPR), HEK293T-Gα16gust44 cells transfected with mouse Tas2r105; assay type: cell-based
T1 construct: expressed in transfected cells; host or cells: HEK293T-Gα16gust44
T1 sequence (Q9JKT4 1-300): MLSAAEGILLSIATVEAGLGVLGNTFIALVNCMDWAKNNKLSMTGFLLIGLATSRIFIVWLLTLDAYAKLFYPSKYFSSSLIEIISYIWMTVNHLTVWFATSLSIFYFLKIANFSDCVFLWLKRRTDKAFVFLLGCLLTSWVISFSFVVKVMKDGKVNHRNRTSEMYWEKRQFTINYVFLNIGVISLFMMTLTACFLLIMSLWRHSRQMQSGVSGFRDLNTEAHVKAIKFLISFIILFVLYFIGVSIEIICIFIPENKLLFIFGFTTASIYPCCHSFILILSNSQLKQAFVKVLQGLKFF

[2] = tested on: T2R02 of Latimeria chalumnae; design: method as in PMID 33355666; details: cited from earlier work

Structure (SMILES): C[C@H](CCC(=O)O)[C@H]1CC[C@H]2[C@@H]3CC[C@@H]4C[C@H](O)CC[C@]4(C)[C@H]3C[C@H](O)[C@]12C [Deoxycholic Acid, deoxycholic acid]
- RLU ([1]; Time 0 s): 0 RLU
- RLU ([1]; Time 2 s): -7.941 RLU
- RLU ([1]; Time 4 s): 8.425 RLU
- RLU ([1]; Time 6 s): -2.576 RLU
- RLU ([1]; Time 8 s): 14.8013 RLU
- RLU ([1]; Time 12 s): -9.724 RLU
- RLU ([1]; Time 14 s): -8.452 RLU
- RLU ([1]; Time 16 s): 1.889 RLU
- RLU ([1]; Time 18 s): -2.18 RLU
- RLU ([1]; Time 18.781 s): -20.0658 RLU
- RLU ([1]; Time 20.781 s): -17.0266 RLU
- RLU ([1]; Time 22.781 s): -39.9091 RLU
- RLU ([1]; Time 24.781 s): 0.577 RLU
- RLU ([1]; Time 26.781 s): -0.6161 RLU
- RLU ([1]; Time 28.781 s): 4.903 RLU
- RLU ([1]; Time 30.781 s): -6.367 RLU
- RLU ([1]; Time 32.781 s): -0.4375 RLU
- RLU ([1]; Time 34.781 s): 4.775 RLU
- RLU ([1]; Time 36.781 s): -8.6591 RLU
- RLU ([1]; Time 38.781 s): -14.3055 RLU
- RLU ([1]; Time 40.781 s): 9.418 RLU
- RLU ([1]; Time 42.781 s): -11.7018 RLU
- RLU ([1]; Time 44.781 s): -11.9371 RLU
- RLU ([1]; Time 46.781 s): 4.597 RLU
- RLU ([1]; Time 48.781 s): 27.0511 RLU
- RLU ([1]; Time 50.781 s): -9.756 RLU
- RLU ([1]; Time 52.781 s): 20.1786 RLU
- RLU ([1]; Time 54.781 s): 19.4961 RLU
- RLU ([1]; Time 56.781 s): 5.269 RLU
- RLU ([1]; Time 58.781 s): 38.5167 RLU
- RLU ([1]; Time 60.781 s): 24.5618 RLU
- RLU ([1]; Time 62.781 s): 36.5379 RLU
- RLU ([1]; Time 64.781 s): 21.9337 RLU
- RLU ([1]; Time 66.781 s): 35.0054 RLU
- RLU ([1]; Time 68.781 s): 34.4928 RLU
- RLU ([1]; Time 70.781 s): 42.8161 RLU
- RLU ([1]; Time 72.781 s): 53.1321 RLU
- RLU ([1]; Time 74.781 s): 54.3186 RLU
- RLU ([1]; Time 76.781 s): 66.018 RLU
- RLU ([1]; Time 78.781 s): 45.8125 RLU
- RLU ([1]; Time 80.781 s): 59.5249 RLU
- RLU ([1]; Time 82.781 s): 62.7416 RLU
- RLU ([1]; Time 84.781 s): 68.7087 RLU
- RLU ([1]; Time 86.781 s): 90.9377 RLU
- RLU ([1]; Time 88.781 s): 81.07 RLU
- RLU ([1]; Time 90.781 s): 72.636 RLU
- RLU ([1]; Time 92.781 s): 97.4301 RLU
- RLU ([1]; Time 94.781 s): 105.551 RLU
- RLU ([1]; Time 96.781 s): 100.341 RLU
- RLU ([1]; Time 98.781 s): 103.309 RLU
- RLU ([1]; Time 100.781 s): 117.485 RLU
- RLU ([1]; Time 102.781 s): 130.646 RLU
- RLU ([1]; Time 104.781 s): 147.286 RLU
- RLU ([1]; Time 106.781 s): 108.305 RLU
- RLU ([1]; Time 108.781 s): 142.084 RLU
- RLU ([1]; Time 110.781 s): 147.264 RLU
- RLU ([1]; Time 112.781 s): 118.273 RLU
- RLU ([1]; Time 114.781 s): 167.002 RLU
- RLU ([1]; Time 116.781 s): 149.721 RLU
- RLU ([1]; Time 118.781 s): 160.265 RLU
- RLU ([1]; Time 120.781 s): 160.404 RLU
- RLU ([1]; Time 122.781 s): 193.86 RLU
- RLU ([1]; Time 124.781 s): 179.508 RLU
- RLU ([1]; Time 126.781 s): 161.679 RLU
- RLU ([1]; Time 128.781 s): 158.603 RLU
- RLU ([1]; Time 130.781 s): 180.418 RLU
- RLU ([1]; Time 132.781 s): 180.045 RLU
- RLU ([1]; Time 134.781 s): 177.913 RLU
- RLU ([1]; Time 136.781 s): 194.619 RLU
- RLU ([1]; Time 137.562 s): 177.939 RLU
- RLU ([1]; Time 143.562 s): 180.507 RLU
- RLU ([1]; Time 149.562 s): 188.634 RLU
- RLU ([1]; Time 155.562 s): 199.157 RLU
- RLU ([1]; Time 161.562 s): 206.349 RLU
- RLU ([1]; Time 167.562 s): 208.396 RLU
- RLU ([1]; Time 173.562 s): 211.199 RLU
- RLU ([1]; Time 179.562 s): 201.145 RLU
- RLU ([1]; Time 185.562 s): 195.662 RLU
- RLU ([1]; Time 191.562 s): 211.659 RLU
- RLU ([1]; Time 197.562 s): 209.959 RLU
- RLU ([1]; Time 203.562 s): 191.361 RLU
- RLU ([1]; Time 209.562 s): 208.831 RLU
- RLU ([1]; Time 215.562 s): 204.186 RLU
- RLU ([1]; Time 221.562 s): 168.101 RLU
- RLU ([1]; Time 227.562 s): 191.058 RLU
- RLU ([1]; Time 233.562 s): 174.166 RLU
- RLU ([1]; Time 239.562 s): 185.934 RLU
- RLU ([1]; Time 245.562 s): 176.351 RLU
- RLU ([1]; Time 293.562 s): 157.143 RLU
- RLU ([1]; Time 299.562 s): 147.048 RLU
- RLU ([1]; Time 305.562 s): 138.332 RLU
- RLU ([1]; Time 311.562 s): 135.378 RLU
- RLU ([1]; Time 317.562 s): 138.908 RLU
- RLU ([1]; Time 323.562 s): 128.724 RLU
- RLU ([1]; Time 329.562 s): 125.639 RLU
- RLU ([1]; Time 335.562 s): 124.441 RLU
- RLU ([1]; Time 341.562 s): 111.174 RLU
- RLU ([1]; Time 347.562 s): 105.923 RLU
- RLU ([1]; Time 353.562 s): 95.2183 RLU
- RLU ([1]; Time 359.562 s): 94.5256 RLU
- Activation threshold concentration Tas2r105 ([1]; p < 0.01 vs empty vector): 10 µM
- Activation of T2R02 [2]: activate
